The values below come from paper PMC12844208, “Screening for Peptides to Bind and Functionally Inhibit SARS-CoV-2 Fusion Peptide Using Mirrored Combinatorial Phage Display and Human Proteomic Phage Display” (Molecules, 2026).

As a reminder, the inhibition is the percentage by which the read-out fell short of the control.

Test [1] concerns D-FP12_biotin (SARS-CoV-2 spike fusion peptide synthesised as a D-peptide). Format: binding.
Test [2] deals with SARS-CoV-2 infection of Vero-E6/TMPRSS2 cells. Description: microbe, parasite or virus in culture. Format: cell-based.
Test [3] concerns anti-Borrelia burgdorferi immune sera. The following applies: occurrences in the anti-Borrelia burgdorferi immune sera NEB PhD7 screening dataset; cited from earlier work. An excerpt:
Table 2 Ten enriched PhD7-mer L-peptides tested in antiviral assays as D-peptides. | column: Occurrence in an Unrelated Screen

A further test concerns FP. Description: Preliminary screen of FP versus a pan-coronaviral phage display library. The following applies: lack of binding to homologous regions of other coronaviruses placed the finding in doubt. On the set-up: species or system SARS-CoV-2. How it is done:
Proteomic phage display of peptide regions of proteins is also possible for viral as well as host proteins, and a preliminary screen of FP versus a pan-coronaviral phage display library of regions of coronaviral proteins was carried out following the methods previously outlined, which only identified a single peptide, despite a large amount of sequencing data obtained. This 39mer […] peptide was derived from the nsp3 (protease-encoding) protein of coronavirus 229E comprising the last four residues of the loop between Y2 and Y3 regions and the first 35 residues of the Y3 region. Y3 plays a role in double-membrane vesicle formation, but the lack of binding to homologous regions of other coronaviruses in the library placed the finding in doubt.

“Also recorded” adds a separate entry of the source. Ends that are not written are not given here.

Turning to WSRGYTG, the “Read Count” value in test [1] was found to be 3676. Regarding LEVYYET, in test [1], the “Read Count” value amounted to 3570. Take “RRRRRRRRGPDRNFRLSEHRQALA-NH2 [OTUD1-derived peptide]”: the “inhibition of SARS-CoV-2 infection of Vero-E6/TMPRSS2 cells (in words)” value in test [2] was “no evidence for any marked impact; also recorded: failed to inhibit viral infection”. As to LTSLPRN, the “Read Count” value in test [1] is given as 4284. Regarding RDHYMMF, the “Read Count” value in test [1] came out at 7135. Same read-out and setting: as for SLTGTRF, the figure is 11,170. With WSLGYTG, the “Occurrence in an Unrelated Screen” value in test [3] was 4. Moreover, the “Read Count” value in test [1] is recorded as 6,280,489. Regarding HDTTLIT, in test [1], the “Read Count” value was 169,773. Take HFARHLA: in test [1], the “Read Count” value is listed as 7063.

As for ETSTMYP, the “effect on SARS-CoV-2 infection (number of infected cells compared to vehicle controls)” value in test [2] was “exception”. In addition, the “Read Count” value in test [1] is recorded as 3552. Regarding `CCC(CC)COC(=O)[C@H](C)N[P@](=O)(OC[C@H]1O[C@@](C#N)(c2ccc3c(N)ncnn23)[C@H](O)[C@@H]1O)Oc1ccccc1` [Remdesivir, reference compound], the “inhibition of infection (in words)” value in test [2] is on record as “strongly inhibited”. Moreover, the inhibition at 5 µM in test [2] (Severe acute respiratory syndrome coronavirus 2, VeroE6/TMPRSS2, read-out: inhibition of infection) is 95%. In the case of NTWPYKP, the “Occurrence in an Unrelated Screen” value in test [3] is 1. The “Read Count” value in test [1] is reported as 264,257.

Consider LSTLSVDFNGVLHKAYIDVLRNSFGKDLNANMSLAECKR, for which the “peptide identified as binding FP in the pan-coronaviral library” value in the test on FP was “identified”.
